Results published in US20210222123A1, “IN VITRO EXPANSION OF DOPAMINERGIC SUBTYPE NEURONAL PROGENITORS DERIVED FROM PLURIPOTENT STEM CELLS” (Wisconsin Alumni Research Foundation, priority 2019, published 2021).
Like-named read-outs stand apart in the source and are kept apart here.

Assays:
DA NPCs [1] = type: cell-based
Description: FGF8 and SHH are not sufficient for expanding DA NPCs: To determine if and how the DA NPCs can be expanded, a CKK8-based assay for quantifying cell numbers was first established. This assay was based on the absorbance readout from a plate reader to estimate the total cell number by monitoring mitochondrial activity, which was used for primary screening/testing for candidate molecules and validating the hits (FIG. 2A).
The optimal seeding density was first determined by plating increasing numbers of DA NPCs to each well. […] The absorbance reached a plateau when the seeding density was beyond 120,000 cell/well (FIG. 2B), and 20,000 cells/well were used for subsequent assays. Using this optimal seeding density (20,000/well), well-to-well and plate-to-plate variation (FIG. 2C) was examined. There were no obvious well-to-well and plate-to-plate variations (FIG. 2C).
Chemical screening identifies an additional compound that expands DA NPCs: The chemical screening platform was set up using FGF8+SHH as a basal condition, FGF8+SHH+DMSO as a control, and FGF8+SHH+1 as the screening mode. With the standardized screening platform (FIG. 3A), 1,200 small molecules (Tocris Total) were screened and the top 5 candidate compounds that increased the absorbance by >2 folds over the median absorbance (FIG. 3B) were identified. […] induced a 5-fold expansion on top of FGF8+SHH (FIG. 3D). We referred to it as the “FSW” cocktail.
Generation and expansion of DA NPCs: DA NPCs were generated as previously described, in particular FGF8b was added from Day 9 (Chen et al., 2016; Xi et al., 2012) (FIG. 1A). The generated DA NPCs were passaged at 10^6 cells/well on a MATRIGEL™ (1:30; PBS diluted and store in 4° C. for use in 2 weeks) coated 6-well plate as the first passage. After overnight, incubation, the medium was switched to the FSCW cocktail in the expansion medium. FSCW cocktail contained FGF8b (50 ng/ml; Peprotech), SHH (25 ng/ml; Peprotech), CHIR (0.6 μM; Tocris) and WNT-C59 (0.5 μM: Tocris). The expansion medium consisted of DF12 basal medium (ThermoFisher), B27 (100×; ThermoFisher), Glutamax (100×; ThermoFisher) and NEAA (100×; ThermoFisher). The cells were passaged every 5 days at the ratio of 1:3. To digest the cells, the cultures were incubated in PBS-diluted EDTA (1:100; Thermo) at 37° C. for 5 minutes before lifting the cells by adding 2 ml DF12 basal medium using cell lifter (Coring) and collecting the cells into a centrifuge tube. Following centrifugation at 1000 rpm for 2 minutes and removal of the supernatant, the cells were resuspended in the expansion medium with FSCW cocktail and seeded onto the coated plates as described above. Y27632 (10 uM; Tocris) was added overnight to improve cell survival.

DA NPCs [2] = test: DA NPC identity by immunostaining of DA marker co-expression; type: cell-based, human
Protocol: Immunostaining and Quantification: Cells on coverslips/wells were rinsed with PBS and fixed in 4% paraformaldehyde for 20 minutes. After rinsing with PBS twice, cells were treated with 0.3% Triton for 10 min followed by 10% donkey serum for 1 hour before incubating with primary antibodies overnight at 4° C. Cells were then incubated for 1 hour at room temperature with fluorescently-conjugated secondary antibodies (Life Technologies). The nuclei were stained with Hoechst (Ho) (Sigma-Aldrich). Images were taken with a Nikon A1R-Si laser-scanning confocal microscope (Nikon, Tokyo, Japan). The primary antibodies used include the followings: Goat anti-OTX2 (1:1000, R&D), Rabbit anti-LMX1A (1:500, Abcam), […], Goat anti-FOXA2 (1:500, Santa Cruz), Mouse anti-EN1 (1:200, 4G11-C, DSHB), Rat anti-Corin (1:100, R&D Systems), Rabbit anti-TH (1:500, Pel-Freez Biologicals), Mouse anti-TUJ1 (1:500, Santa Cruz Biotechnology), Mouse anti-MAP2 (1:200, Sigma-Aldrich), Rabbit anti-GIRK2 (1:80, Alomone Labs), Rabbit anti-SOX6 (1:1000, Sigma-Aldrich), Mouse anti-Stem121 (1:500, Clonetech). For quantifying DA NPC populations, cells were counted among the total Hoechst labeled nuclei. Three independent cultures (n=3) were analyzed.

[3] = FGF2 alone, 10 to 200 ng/ml, one passage in 5 days

Question: For `Cc1c[nH]c(-c2cnc(NCCNc3ccc(C#N)cn3)nc2-c2ccc(Cl)cc2Cl)n1` [CHIR, CHIR99021], which “expansion of DA NPCs” value (DA NPCs [1]; CHIR alone, range of doses) is on record?
Answer: expanded the DA NPCs

Question: What about the “expansion of DA NPCs” value (DA NPCs [1]; CHIR at a low dose (0.6 μM)) of the same compound?
Answer: expanded the DA NPCs

Question: And the “dose window in which DA NPC identity (co-expression of LMX1A and OTX2) was retained” value (DA NPCs [2]; CHIR alone)?
Answer: 0.6 µM

Question: What about the DA identity (DA NPCs [2]; CHIR alone, concentrations lower or higher than 0.6 μM) of the same compound?
Answer: loss of DA identity

Question: And the “cellular identity of DA NPCs” value (DA NPCs [2]; CHIR at a low dose (0.6 μM))?
Answer: did not alter their cellular identity

Question: What does the source list for `Cc1cc(-c2ccc(CC(=O)Nc3ccc(-c4cccnc4)cc3)cc2)ccn1` [WNT-C59]?
Answer: expansion on top of FGF8+SHH (DA NPCs [1]; WNT-C59 "At 2" (unit not given), FSW cocktail): 5 fold; concentration of maximum effect in the cocktail (DA NPCs [1]; WNT-C59 titration in FSCW cocktail): 0.5 µM; DA identity after induced expansion (co-expression of LMX1A and OTX2) (DA NPCs [2]; on top of FGF8+SHH, 1 passage, 5 days, ratio 1:3): maintained DA identity

Question: Which cell proliferation (DA NPCs [1]; [3]) does the source give for “FGF2: growth factor reported for expanding pan-NPCs or specified NPCs” here?
Answer: induced dramatic cell proliferation

Question: And the “DA NPC identity (co-expression of LMX1A and OTX2)” value (DA NPCs [2]; [3])?
Answer: loss of co-expression of LMX1A and OTX2
